# Results from patent US20050112573A1, “Method of detecting toxic substance” (priority 2001, published 2005).
# System: yeast genes (level of expressed mRNA)
# Assay: DNA chip analysis of expressed mRNA of yeast genes after 2 h culture with a toxic chemical substance
# Format: cell-based, Saccharomyces cerevisiae S288C
# Protocol: Yeast (Saccharomyces cerevtisiae S288C (α SUC2mal mel gap2 CUP1)) were cultured at 25° C. on YPD medium (yeast extract 1%, polypepton 2%, glucose 2%). One of toxic chemical substances was added to the cell at logarithmic growth phase, and the cell was further cultured for two hours. Cell was cultured without any chemical substance in the same condition, and was used as control. Concentrations of the chemical substances were defined to inhibit the growth of the yeast but not lead to death.
# After the completion of cultivation, the culture was centrifuged to collect the cells. To the cells, sodium acetate buffer (50 mM sodium acetate, 10 mM EDTA, 1% SDS) was added, and the mixture was shaken at 65° C. for five minutes, followed by returning to room temperature, and obtaining the supernatant, which procedure was repeated two times. To the supernatant, ½ amount of a solution of phenol/chloroform was added, and the mixture was centrifuged to give a supernatant, which was added with an equal amount of chloroform, and the mixture was centrifuged to give a supernatant. To the supernatant, an equal amount of isopropanol containing 0.3 M sodium acetate was added, and the mixture was allowed to stand at room temperature for 30 minutes, after which the mixture was centrifuged to give a sediment of the whole RNAs. Seventy % ethanol was added to the sediment, and the mixture was again centrifuged to give a sediment, which was then dried and dissolved in water. mRNA was isolated from the whole RNAs as followings. In view of the fact that a poly A chain is attached to the 3′ terminus of mRNA, a polynucleotide having a poly T structure which was immobilized on the surface of latex beads was used to trap the mRNA, and then the mRNA was washed and eluted with spine column (Oligotex-dT30<Super>mRNA Purification Kit, Takara). Reverse transcription of the mRNA was conducted with a reverse transcriptase (Super Script II Reverse Transcriptase; catalogue No. 18064-014, GibcoBRL) using fluorescence-labeled nucleotides to give cDNAs that were introduced with Cy3-dUTP or Cy5-dUTP during the reverse transcription.
# The labeled cDNAs were dissolved in TE buffer (10 mM Tris-HCl/1 mM EDTA, pH8.0), and the solution was dropped on the DNA chip containing the whole genes of yeast (DNA Chip Research Inc. Japan) so that the cDNAs were hybridized on the DNA chip at 65° C. for over 12 hours. The fluoresces intensity of the DNA chip was read with a scanner, and the ratio relative to the fluorescence intensity resulting from the absence of chemical substance was estimated as the following, which is shown in Tables 1 to 9: [formula]
# In the Tables, “Intensity” indicated in the rightmost column is a value of the level of expressed mRNA of each gene in control cells as divided by the average level of the expressions of the whole genes.
structure (smiles),measurement,setting,value
"S=C([S-])NCCNC(=S)[S-].[Zn+2] [(11), zinc N,N′-ethylenebis(dithiocarbamate)]",level of expressed mRNA in the presence of chemical substance/in its absence,gene YGR282C,1.5
same,The level of expressed mRNA in the presence of chemical substance/absence: YGR293C,gene YGR293C,0.6
same,The level of expressed mRNA in the presence of chemical substance/absence: YHL006C,gene YHL006C,0.7
same,The level of expressed mRNA in the presence of chemical substance/absence: YHL021C,gene YHL021C,1.4
same,The level of expressed mRNA in the presence of chemical substance/absence: YHL037C,gene YHL037C,1.0
same,level of expressed mRNA in the presence of chemical substance/in its absence,gene YHR037W,1.7
same,The level of expressed mRNA in the presence of chemical substance/absence: YHR083W,gene YHR083W,1.3
same,level of expressed mRNA in the presence of chemical substance/in its absence,gene YHR092C,1.5
same,The level of expressed mRNA in the presence of chemical substance/absence: YHR095W,gene YHR095W,1.3
same,The level of expressed mRNA in the presence of chemical substance/absence: YHR105W,gene YHR105W,0.7
same,The level of expressed mRNA in the presence of chemical substance/absence: YHR134W,gene YHR134W,0.7
same,level of expressed mRNA in the presence of chemical substance/in its absence,gene YHR137W,0.6
same,The level of expressed mRNA in the presence of chemical substance/absence: YHR180W,gene YHR180W,1.4
same,The level of expressed mRNA in the presence of chemical substance/absence: YHR181W,gene YHR181W,1.3
same,level of expressed mRNA in the presence of chemical substance/in its absence,gene YHR190W,1.3
same,level of expressed mRNA in the presence of chemical substance/in its absence,gene YIL033C,1.8
same,The level of expressed mRNA in the presence of chemical substance/absence: YIL108W,gene YIL108W,1.2
same,The level of expressed mRNA in the presence of chemical substance/absence: YIL127C,gene YIL127C,0.9
same,level of expressed mRNA in the presence of chemical substance/in its absence,gene YIL154C,1.2
same,The level of expressed mRNA in the presence of chemical substance/absence: YIL165C,gene YIL165C,1.1
same,level of expressed mRNA in the presence of chemical substance/in its absence,gene YIL167W,1.9
same,level of expressed mRNA in the presence of chemical substance/in its absence,gene YIR035C,1.3
same,The level of expressed mRNA in the presence of chemical substance/absence: YJL017W,gene YJL017W,1.4
same,The level of expressed mRNA in the presence of chemical substance/absence: YJL032W,gene YJL032W,1.8
same,The level of expressed mRNA in the presence of chemical substance/absence: YJL037W,gene YJL037W,1.6
same,The level of expressed mRNA in the presence of chemical substance/absence: YJL049W,gene YJL049W,1.5
same,level of expressed mRNA in the presence of chemical substance/in its absence,gene YJL088W,0.9
same,The level of expressed mRNA in the presence of chemical substance/absence: YJL097W,gene YJL097W,1.5
same,level of expressed mRNA in the presence of chemical substance/in its absence,gene YJL132W,1.4
same,level of expressed mRNA in the presence of chemical substance/in its absence,gene YJL196C,2.3
same,The level of expressed mRNA in the presence of chemical substance/absence: YJR030C,gene YJR030C,0.8
same,The level of expressed mRNA in the presence of chemical substance/absence: YJR044C,gene YJR044C,1.9
same,level of expressed mRNA in the presence of chemical substance/in its absence,gene YJR142W,0.9
same,level of expressed mRNA in the presence of chemical substance/in its absence,gene YJR148W,0.6
same,level of expressed mRNA in the presence of chemical substance/in its absence,gene YJR159W,2.2
same,The level of expressed mRNA in the presence of chemical substance/absence: YKL051W,gene YKL051W,1.8
same,The level of expressed mRNA in the presence of chemical substance/absence: YKL059C,gene YKL059C,0.9
same,level of expressed mRNA in the presence of chemical substance/in its absence,gene YKL067W,1.8
same,The level of expressed mRNA in the presence of chemical substance/absence: YKL090W,gene YKL090W,2.3
same,The level of expressed mRNA in the presence of chemical substance/absence: YKL094W,gene YKL094W,1.3
same,The level of expressed mRNA in the presence of chemical substance/absence: YKL097C,gene YKL097C,0.6
same,The level of expressed mRNA in the presence of chemical substance/absence: YKL100C,gene YKL100C,1.6
same,level of expressed mRNA in the presence of chemical substance/in its absence,gene YKR039W,1.9
same,The level of expressed mRNA in the presence of chemical substance/absence: YKR040C,gene YKR040C,0.8
same,The level of expressed mRNA in the presence of chemical substance/absence: YLR097C,gene YLR097C,1.7
same,level of expressed mRNA in the presence of chemical substance/in its absence,gene YLR142W,3.8
same,level of expressed mRNA in the presence of chemical substance/in its absence,gene YLR180W,1.7
same,The level of expressed mRNA in the presence of chemical substance/absence: YLR226W,gene YLR226W,0.8
same,level of expressed mRNA in the presence of chemical substance/in its absence,gene YLR273C,1.4
same,level of expressed mRNA in the presence of chemical substance/in its absence,gene YLR300W,1.0
same,level of expressed mRNA in the presence of chemical substance/in its absence,gene YLR307W,0.8
same,The level of expressed mRNA in the presence of chemical substance/absence: YLR338W,gene YLR338W,0.9
same,The level of expressed mRNA in the presence of chemical substance/absence: YLR339C,gene YLR339C,1.6
same,The level of expressed mRNA in the presence of chemical substance/absence: YLR392C,gene YLR392C,1.4
same,The level of expressed mRNA in the presence of chemical substance/absence: YLR415C,gene YLR415C,0.8
same,The level of expressed mRNA in the presence of chemical substance/absence: YLR427W,gene YLR427W,0.8
same,The level of expressed mRNA in the presence of chemical substance/absence: YML013W,gene YML013W,1.1
